# Assays:
# [1] = tested on: guinea pig left atria; test: Positive inotropic effect in guinea pig left atria; settings: Cavia porcellus; for EC50: concentration that increases developed tension (DT) by 50% above the control DT, left atria paced at 2 Hz, 37° C.; for Emax: ratio of the maximum effect of the test compound to that of Bay K8644, read-out: Intrinsic Activity
# Method: Guinea pigs are killed by cervical dislocation. The left atria are removed and mounted at 1 gm resting tension in tissue baths containing oxygenated Krebs bicarbonate solution which is kept at 37° C. The left atria are electrically paced at 2 Hz with square wave pulses of 1 msec duration. The voltage is set at 1.5×threshold level.
# After a one hour equilibration period, control values for developed tension (DT, gm) are recorded. Test compounds are then added to the baths, in a cumulative manner to a maximum concentration of 10^-4, to obtain a concentration-response curve. Treatment values of DT are obtained after the drug effect has reached a plateau and the exposure time for each concentration is 5-8 minutes. Percent change of the treatment value from the control value is calculated at each concentration of the test compound.
# [2] = molecular target: alpha1-adrenoceptor; test: [3H]-Prazosin binding assay (affinity for alpha1-adrenoceptors); settings: partially purified rat brain membranes; 0.2 nM [3H]-prazosin, 60 min, 25° C.
# Method: The [^3 H]-prazosin binding assay was carried out according to the method described by Timmermans, P. B. M. W. M., Schoop, A. M. C., and Van Zwieten, P. A., Biochem. Pharmacol., 31, 899-905, (1982). The reaction mixture contained partially purified rat brain membranes (source of alpha1 -adrenoceptors), 0.2 nM [^3 H]-prazosin with or without potential displacer in Tris buffer. The mixture was incubated for 60 minutes at 25° C. and subsequently terminated by rapid filtration through glass fiber-filter. Receptor-bound [^3 H]-prazosin trapped in the filter was quantitated by scintillation counting. The inhibitory concentration (IC50) of potential displacer which gives 50% displacement of the total specifically bound [^3 H]-prazosin is presented as a measure of the affinity of such compound for the alpha1 -adrenoceptor.
# [3] = molecular target: T1, Ca^2+ channel (Rattus norvegicus, UniProt P22002); test: [3H]-Nitrendipine binding assay (affinity for calcium channels); settings: rat cardiac microsomes; 0.5 nM [3H]-nitrendipine, 60 min, 25° C.
# T1 construct: rat cardiac microsomes (source of Ca^2+ channels); from tissue; host or cells: rat cardiac microsomes
# Method: [^3 H]-Nitrendipine binding assay was carried out according to the method described by G. T. Bolger, et al., Biochem. Biophys. Res. Comm., 104, 1604-1609, (1982). The reaction mixture contained rat cardiac microsomes (source of Ca^2+ channels), 0.5 nM [^3 H]-nitrendipine with or without potential displacer in Tris buffer. The mixture was incubated for 60 minutes at 25° C. and subsequently terminated by rapid filtration through a glass fiber-filter. Membrane-bound [^3 H]-nitrendipine trapped in the filter was quantitated by scintillation counting. The inhibitory concentration (IC50) of potential displacer which gives 50% displacement of the total specifically bound [^3 H]-nitrendipine is presented as a measure of the affinity of such compound for the Ca^2+ channel.
# [4] = tested on: influx of calcium ions into cells; settings: background, cited from earlier work
# T1 sequence (P22002 whole entry, other chains not shown): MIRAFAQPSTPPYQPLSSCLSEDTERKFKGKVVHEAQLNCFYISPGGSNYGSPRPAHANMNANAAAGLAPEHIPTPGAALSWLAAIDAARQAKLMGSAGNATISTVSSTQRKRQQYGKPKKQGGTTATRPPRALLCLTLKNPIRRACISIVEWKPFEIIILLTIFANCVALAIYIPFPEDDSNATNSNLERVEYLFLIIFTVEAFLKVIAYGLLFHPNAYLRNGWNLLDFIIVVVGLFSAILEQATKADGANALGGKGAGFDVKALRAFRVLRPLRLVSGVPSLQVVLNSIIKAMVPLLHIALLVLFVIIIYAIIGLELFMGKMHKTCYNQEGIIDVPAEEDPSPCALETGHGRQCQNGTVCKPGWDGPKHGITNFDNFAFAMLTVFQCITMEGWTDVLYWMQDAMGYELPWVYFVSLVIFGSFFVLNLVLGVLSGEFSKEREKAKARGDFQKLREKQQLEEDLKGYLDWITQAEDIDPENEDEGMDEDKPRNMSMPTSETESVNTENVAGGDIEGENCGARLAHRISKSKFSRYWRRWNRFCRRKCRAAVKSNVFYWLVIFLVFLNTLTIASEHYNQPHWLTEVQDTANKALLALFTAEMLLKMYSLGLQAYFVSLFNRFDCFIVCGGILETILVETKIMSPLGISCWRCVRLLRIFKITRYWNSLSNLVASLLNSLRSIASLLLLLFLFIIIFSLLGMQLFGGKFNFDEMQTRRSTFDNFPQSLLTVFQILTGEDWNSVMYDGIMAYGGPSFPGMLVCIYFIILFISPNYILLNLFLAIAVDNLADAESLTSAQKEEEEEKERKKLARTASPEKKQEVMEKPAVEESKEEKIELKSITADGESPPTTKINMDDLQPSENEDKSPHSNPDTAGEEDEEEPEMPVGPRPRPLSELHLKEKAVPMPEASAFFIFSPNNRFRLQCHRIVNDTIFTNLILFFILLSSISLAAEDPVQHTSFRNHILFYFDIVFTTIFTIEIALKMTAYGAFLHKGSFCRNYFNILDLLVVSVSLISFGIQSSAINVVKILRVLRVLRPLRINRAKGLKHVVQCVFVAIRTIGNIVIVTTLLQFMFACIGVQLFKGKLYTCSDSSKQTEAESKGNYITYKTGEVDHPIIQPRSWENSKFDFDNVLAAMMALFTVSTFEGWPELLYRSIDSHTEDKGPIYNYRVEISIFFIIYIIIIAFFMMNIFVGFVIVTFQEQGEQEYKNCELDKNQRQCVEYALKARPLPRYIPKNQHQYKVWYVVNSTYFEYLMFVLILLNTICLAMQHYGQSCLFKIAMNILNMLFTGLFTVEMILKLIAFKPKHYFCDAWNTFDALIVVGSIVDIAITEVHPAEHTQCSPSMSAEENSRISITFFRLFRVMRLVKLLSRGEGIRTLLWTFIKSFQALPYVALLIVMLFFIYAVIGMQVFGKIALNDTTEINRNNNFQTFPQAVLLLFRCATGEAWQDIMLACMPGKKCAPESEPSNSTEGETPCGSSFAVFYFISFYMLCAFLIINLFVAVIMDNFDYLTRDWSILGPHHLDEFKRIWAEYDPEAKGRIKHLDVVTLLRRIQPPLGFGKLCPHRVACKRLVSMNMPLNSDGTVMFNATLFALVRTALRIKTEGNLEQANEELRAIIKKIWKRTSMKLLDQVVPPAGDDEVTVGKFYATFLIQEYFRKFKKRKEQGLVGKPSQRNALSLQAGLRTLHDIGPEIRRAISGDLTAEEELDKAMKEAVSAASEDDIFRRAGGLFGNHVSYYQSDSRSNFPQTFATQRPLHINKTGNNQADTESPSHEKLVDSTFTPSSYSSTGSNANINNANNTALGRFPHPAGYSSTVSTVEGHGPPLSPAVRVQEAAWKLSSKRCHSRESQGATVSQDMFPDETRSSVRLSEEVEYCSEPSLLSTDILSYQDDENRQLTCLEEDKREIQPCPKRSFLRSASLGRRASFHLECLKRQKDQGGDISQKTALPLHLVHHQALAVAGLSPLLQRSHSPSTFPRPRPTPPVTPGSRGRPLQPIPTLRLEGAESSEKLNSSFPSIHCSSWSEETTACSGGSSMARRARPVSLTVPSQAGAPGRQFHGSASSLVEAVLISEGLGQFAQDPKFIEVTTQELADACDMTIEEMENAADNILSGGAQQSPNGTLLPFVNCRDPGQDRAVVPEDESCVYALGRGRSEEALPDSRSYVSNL
# T1 sequence (P54290 25-944 partner limits assumed, other chains not shown): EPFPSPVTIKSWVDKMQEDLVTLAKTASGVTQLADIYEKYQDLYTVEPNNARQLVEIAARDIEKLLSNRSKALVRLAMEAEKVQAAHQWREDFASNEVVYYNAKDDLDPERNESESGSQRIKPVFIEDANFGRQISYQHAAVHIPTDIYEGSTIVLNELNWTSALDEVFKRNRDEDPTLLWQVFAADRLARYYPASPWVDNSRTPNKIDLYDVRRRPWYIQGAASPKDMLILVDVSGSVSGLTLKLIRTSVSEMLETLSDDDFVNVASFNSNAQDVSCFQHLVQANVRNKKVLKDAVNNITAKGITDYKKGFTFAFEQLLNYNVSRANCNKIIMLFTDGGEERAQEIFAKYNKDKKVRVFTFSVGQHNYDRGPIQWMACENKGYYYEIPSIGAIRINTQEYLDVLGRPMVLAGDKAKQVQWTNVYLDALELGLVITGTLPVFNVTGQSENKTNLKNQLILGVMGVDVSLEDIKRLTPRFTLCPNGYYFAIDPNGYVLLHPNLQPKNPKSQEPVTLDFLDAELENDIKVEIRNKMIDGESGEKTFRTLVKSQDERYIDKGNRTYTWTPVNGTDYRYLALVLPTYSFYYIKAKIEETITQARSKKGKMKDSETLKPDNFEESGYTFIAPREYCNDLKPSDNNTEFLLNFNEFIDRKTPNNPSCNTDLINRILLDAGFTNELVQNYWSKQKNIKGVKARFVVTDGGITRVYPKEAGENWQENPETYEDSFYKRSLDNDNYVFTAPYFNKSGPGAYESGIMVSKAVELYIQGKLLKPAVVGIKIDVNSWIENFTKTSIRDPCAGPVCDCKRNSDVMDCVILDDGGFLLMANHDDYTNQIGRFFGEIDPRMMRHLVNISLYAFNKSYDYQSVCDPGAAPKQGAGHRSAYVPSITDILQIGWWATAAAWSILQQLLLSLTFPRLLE
# T1 sequence (P54290 945-1091 partner limits assumed, other chains not shown): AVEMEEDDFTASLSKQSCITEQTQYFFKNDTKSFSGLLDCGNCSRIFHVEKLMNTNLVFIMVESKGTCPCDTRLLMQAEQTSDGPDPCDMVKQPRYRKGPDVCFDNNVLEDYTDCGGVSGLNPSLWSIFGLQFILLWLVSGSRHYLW
EC50 [1] [µM],IC50 [2] [µM],IC50 [3] [µM],Structure (SMILES),Emax [1] [%],"calcium influx, inotropic and vascular effects ([4]; literature)",potency as a calcium agonist relative to CGP 28392 ([4]; literature),coronary vasoconstriction ([4]; not useful as a cardiotonic)
5,0.13,0.6,"COC(=O)C1=C(C)NC(C)=C([N+](=O)[O-])C1c1ccoc1CCCCCN1CCN(c2ccccc2OC)CC1 (stereo not shown) [Example 1, 1,4-Dihydro-4-(2-{5-[4-(2-methoxyphenyl)-1-piperazinyl]pentyl}-3-furanyl)-2,6-dimethyl-5-nitro-3-pyridinecarboxylic acid, methyl ester]",188,,,
0.85,6,0.95,"CC1=C(C(=O)OCCN2CCN(c3ncccn3)CC2)C(c2ccsc2)C([N+](=O)[O-])=C(C)N1 (stereo not shown) [Example 66, 1,4-Dihydro-2,6-dimethyl-5-nitro-4-(3-thienyl)-3-pyridinecarboxylic acid, {2-[4-(2-pyrimidinyl)-1-piperazinyl]ethyl} ester]",210,,,
1,0.18,0.86,"COc1ccccc1N1CCN(CCOC(=O)C2=C(C)NC(C)=C([N+](=O)[O-])C2c2ccsc2)CC1 (stereo not shown) [Example 65, 1,4-Dihydro-2,6-dimethyl-5-nitro-4-(3-thienyl)-3-pyridinecarboxylic acid, {2-[4-(2-methoxyphenyl)-1-piperazinyl]ethyl} ester]",225,,,
0.15,,,COC(=O)C1=C(C)NC(C)=C([N+](=O)[O-])C1c1ccccc1C(F)(F)F (stereo not shown) [Bay K8644],100,"promote an influx of calcium ions, into cells thereby producing positive inotropic and vasoconstrictor effects",more than ten times as potent as CGP 28392 as a calcium agonist,coronary vasoconstricting properties
96,1.9,1.5,COC(=O)C1=C(C)NC(C)=C([N+](=O)[O-])C1c1ccoc1CCCCCN1CCN(C(=O)c2ccco2)CC1 (stereo not shown) [Example 2],144,,,
25,0.4,4.4,"CC1=C(C(=O)OCCCCN2CCN(c3ncccn3)CC2)C(c2cccnc2)C([N+](=O)[O-])=C(C)N1 (stereo not shown) [Example 53, 1,4-Dihydro-2,6-dimethyl-5-nitro-4-(3-pyridinyl)-3-pyridinecarboxylic acid: {4-[4-(2-pyrimidinyl)-1-piperazinyl]butyl} ester]",189,,,
0.43,5.2,4.3,"CC1=C(C(=O)OCCN2CCN(c3ncccn3)CC2)C(c2ccoc2)C([N+](=O)[O-])=C(C)N1 (stereo not shown) [Example 56, 4-(3-Furanyl)-1,4-dihydro-2,6-dimethyl-5-nitro-3-pyridinecarboxylic acid, {2-[4-(2-pyrimidinyl)-1-piperazinyl]ethyl} ester]",171,,,
2,0.9,0.36,COC(=O)C1=C(C)NC(C)=C([N+](=O)[O-])C1c1ccccc1OCCCCCN1CCC(c2ccccc2)CC1 (stereo not shown) [Example 6],207,,,
12,1,1.6,CC1=C(C(=O)OCCCCN2CCN(c3ncccn3)CC2)C(c2ccsc2)C([N+](=O)[O-])=C(C)N1 (stereo not shown) [Example 72],70,,,
15,15,0.58,COC(=O)C1=C(C)NC(C)=C([N+](=O)[O-])C1c1ccccc1OCCCCCN1CCN(c2ccc(OC(C)C)nn2)CC1 (stereo not shown) [Example 8],113,,,
0.84,0.75,1.8,"CC1=C(C(=O)OCCCCN2CCN(c3ncccn3)CC2)C(c2cccn2C)C([N+](=O)[O-])=C(C)N1 (stereo not shown) [Example 58, 1,4-Dihydro-2,6-dimethyl-4-(1-methyl-1H-pyrrol-2-yl)-5-nitro-3-pyridinecarboxylic acid, {4-[4-(2-pyrimidinyl)-1-piperazinyl]butyl} ester]",195,,,
0.58,3.3,1.7,"CC1=C(C(=O)OCCN2CCN(c3ncccn3)CC2)C(c2cccn2C)C([N+](=O)[O-])=C(C)N1 (stereo not shown) [Example 78, 1,4-Dihydro-2,6-dimethyl-4-(1-methyl-1H-pyrrol-2-yl)-5-nitro-3-pyridinecarboxylic acid, {2-[4-(2-pyrimidinyl)-1-piperazinyl]ethyl} ester]",231,,,
> 100,> 1,3.7,CC1=C(C(=O)OCCN2CCN(c3ncccn3)CC2)C(c2cccnc2)C([N+](=O)[O-])=C(C)N1 (stereo not shown) [Example 62],48,,,
,0.02,0.89,COC(=O)C1=C(C)NC(C)=C([N+](=O)[O-])C1c1ccccc1[S+]([O-])CCCCN1CCN(c2ccccc2OC)CC1 (stereo not shown) [Example 4],43,,,
1,0.063,0.24,COC(=O)C1=C(C)NC(C)=C([N+](=O)[O-])C1c1ccccc1S(=O)(=O)CCCCN1CCN(c2ccccc2OC)CC1 (stereo not shown) [Example 3],89,,,
0.23,0.11,1.1,"COc1ccccc1N1CCN(CCOC(=O)C2=C(C)NC(C)=C([N+](=O)[O-])C2c2cccn2C)CC1 (stereo not shown) [Example 77, 1,4-Dihydro-2,6-dimethyl-4-(1-methyl-1H-pyrrol-2-yl)-5-nitro-3-pyridinecarboxylic acid, {2-[4-(2-methoxyphenyl)-1-piperazinyl]ethyl} ester]",240,,,
11,0.12,0.11,"COc1ccccc1N1CCN(CCCCOC(=O)C2=C(C)NC(C)=C([N+](=O)[O-])C2c2cccc3nonc23)CC1 (stereo not shown) [Example 51, 4-(4-Benzofurazanyl)-1,4-dihydro-2,6-dimethyl-5-nitro-3-pyridinecarboxylicacid, {4-[4-(2-methoxyphenyl)-1-piperazinyl]butyl} ester]",175,,,
62,0.035,2,COc1ccccc1N1CCN(CCCCOC(=O)C2=C(C)NC(C)=C([N+](=O)[O-])C2c2ccco2)CC1 (stereo not shown) [Example 69],60,,,
2.3,0.033,1.3,"COc1ccccc1N1CCN(CCCCOC(=O)C2=C(C)NC(C)=C([N+](=O)[O-])C2c2cccn2C)CC1 (stereo not shown) [Example 57, 1,4-Dihydro-2,6-dimethyl-4-(1-methyl-1H-pyrrol-2-yl)-5-nitro-3-pyridinecarboxylic acid, {4-[4-(2-methoxyphenyl)1-piperazinyl]butyl} ester]",110,,,
3,2.2,0.68,COC(=O)C1=C(C)NC(C)=C([N+](=O)[O-])C1c1ccccc1OCCCCCN1CCN(C(=O)c2ccco2)CC1 (stereo not shown) [Example 5],269,,,
12,0.06,2.2,COc1ccccc1N1CCN(CCCCOC(=O)C2=C(C)NC(C)=C([N+](=O)[O-])C2c2cccs2)CC1 (stereo not shown) [Example 63],75,,,
1,0.1,5.1,"COc1ccccc1N1CCN(CCOC(=O)C2=C(C)NC(C)=C([N+](=O)[O-])C2c2ccoc2)CC1 (stereo not shown) [Example 55, 4-(3-Furanyl)-1,4-dihydro-2,6-dimethyl-5-nitro-3-pyridinecarboxylic acid, {2-[4-(2-methoxyphenyl)-1-piperazinyl]ethyl} ester]",169,,,
